Read-outs that look alike come from different tables or passages of the source.
How the values were obtained:
[1] = system: Mycosphaerella graminicola; Anamorph: Septoria tritici; assay: Fungicidal activity: Leaf Blotch of Wheat (SEPTTR); assay type: in vivo; details: Zymoseptoria tritici, wheat leaf blotch; for pest or weed control at 121.5 g/ha: Low Volume (121.5 g/H); for pest or weed control at 100 µg/mL: High Volume (100 ppm)
Experimental: Evaluation of Fungicidal Activity: Leaf Blotch of Wheat (Mycosphaerella graminicola; Anamorph: Septoria tritici; Bayer Code […]) Technical grades of materials were dissolved in acetone, which were then mixed with nine volumes of water containing 110 ppm Triton X-100. The fungicide solutions were applied onto wheat seedlings using an automated booth sprayer to run-off. All sprayed plants were allowed to air dry prior to further handling. All fungicides were evaluated using the aforementioned method for their activity vs. all target diseases, unless stated otherwise. Wheat leaf blotch and brown rust activity were also evaluated using track spray applications, in which case the fungicides were formulated as EC formulations, containing 0.1% Trycol 5941 in the spray solutions. Wheat plants (variety Yuma) were grown from seed in a greenhouse in 50% mineral soil/50% soil-less Metro mix until the first leaf was fully emerged, with 7-10 seedlings per pot. These plants were inoculated with an aqueous spore suspension of Septoria tritici either prior to or after fungicide treatments. After inoculation the plants were kept in 100% relative humidity (one day in a dark dew chamber followed by two to three days in a lighted dew chamber at 20° C.) to permit spores to germinate and infect the leaf. The plants were then transferred to a greenhouse set at 20° C. for disease to develop. When disease symptoms were fully expressed on the 1st leaves of untreated plants, infection levels were assessed on a scale of 0 to 100 percent disease severity. Percent disease control was calculated using the ratio of disease severity on treated plants relative to untreated plants.

[2] = system: Puccinia triticina; assay: Fungicidal activity: Wheat Brown Rust (PUCCRT); assay type: in vivo; details: for pest or weed control at 121.5 g/ha: Low Volume (121.5 g/H); for pest or weed control at 100 µg/mL: High Volume (100 ppm)
Experimental: Technical grades of materials were dissolved in acetone, which were then mixed with nine volumes of water containing 110 ppm Triton X-100. The fungicide solutions were applied onto wheat seedlings using an automated booth sprayer to run-off. All sprayed plants were allowed to air dry prior to further handling. All fungicides were evaluated using the aforementioned method for their activity vs. all target diseases, unless stated otherwise. Wheat leaf blotch and brown rust activity were also evaluated using track spray applications, in which case the fungicides were formulated as EC formulations, containing 0.1% Trycol 5941 in the spray solutions. Wheat plants (variety Yuma) were grown from seed in a greenhouse in 50% mineral soil/50% soil-less Metro mix until the first leaf was fully emerged, with 7-10 seedlings per pot. These plants were inoculated with an aqueous spore suspension of Septoria tritici either prior to or after fungicide treatments. After inoculation the plants were kept in 100% relative humidity (one day in a dark dew chamber followed by two to three days in a lighted dew chamber at 20° C.) to permit spores to germinate and infect the leaf. The plants were then transferred to a greenhouse set at 20° C. for disease to develop. When disease symptoms were fully expressed on the 1st leaves of untreated plants, infection levels were assessed on a scale of 0 to 100 percent disease severity. Percent disease control was calculated using the ratio of disease severity on treated plants relative to untreated plants. Evaluation of Fungicidal Activity: Wheat Brown Rust (Puccinia triticina; Synonym: Puccinia recondite f. Sp. Tritici; Bayer Code PUCCRT) Wheat plants (variety Yuma) were grown from seed in a greenhouse in 50% mineral soil/50% soil-less Metro mix until the first leaf was fully emerged, with 7-10 seedlings per pot. These plants were inoculated with an aqueous spore suspension of Puccinia triticina either prior to or after fungicide treatments. After inoculation the plants were kept in a dark dew room at 22° C. with 100% relative humidity overnight to permit spores to germinate and infect the leaf. The plants were then transferred to a greenhouse set at 24° C. for disease to develop. Fungicide formulation, application and disease assessment followed the procedures as described in the Example A.

[3] = 24 h, 1 Day Protectant, read-out: SEPTTR 1 DP disease control
[4] = 72 h, 3 Day Curative, read-out: SEPTTR 3 DC disease control
[5] = 24 h, 1 Day Protectant, read-out: PUCCRT 1 DP disease control
[6] = 72 h, 3 Day Curative, read-out: PUCCRT 3 DC disease control

Structure (SMILES)	pest or weed control at 121.5 g/ha [1, 3] [%]	pest or weed control at 121.5 g/ha [1, 4] [%]	pest or weed control at 121.5 g/ha [2, 5] [%]	pest or weed control at 121.5 g/ha [2, 6] [%]	pest or weed control at 100 µg/mL [1, 3] [%]	pest or weed control at 100 µg/mL [1, 4] [%]	pest or weed control at 100 µg/mL [2, 5] [%]	pest or weed control at 100 µg/mL [2, 6] [%]
CCOCC(=O)OCOc1c(OC)ccnc1C(=O)N[C@H]1COC[C@H](Cc2ccccc2)[C@@H](CC(C)C)[C@H](C)OC1=O [compound 21]	> 70	> 70	> 70	> 70	–	–	–	–
COc1ccnc(C(=O)N[C@H]2COC[C@H](CC3CC3)[C@@H](c3ccccc3)[C@H](C)OC2=O)c1OCOC(=O)C(C)C [compound 102]	> 70	> 70	> 70	> 70	–	–	–	–
COc1ccnc(C(=O)N[C@H]2COC[C@H](CC3CC3)[C@@H](c3ccccc3)[C@H](C)OC2=O)c1O [compound 154]	–	–	–	–	> 70	> 70	> 70	> 70
COc1ccnc(C(=O)N[C@H]2COC[C@H](Cc3ccccc3)[C@@H](Cc3ccc(OC(F)(F)F)cc3)[C@H](C)OC2=O)c1OC(C)=O [compound 50]	> 70	< 70	> 70	< 70	–	–	–	–
CCOCC(=O)OCOc1c(OC)ccnc1C(=O)N[C@H]1COC[C@H](Cc2ccccc2)[C@@H](Cc2ccccc2)[C@H](C)OC1=O [compound 28]	> 70	> 70	> 70	> 70	–	–	–	–
COc1ccnc(C(=O)N[C@H]2COC[C@H](CC3CC3)[C@@H](c3ccccc3)[C@H](C)OC2=O)c1OCOC(C)=O [compound 101]	> 70	> 70	> 70	> 70	–	–	–	–
COc1ccnc(C(=O)N[C@H]2COC[C@H](CC3CCCC3)[C@@H](CC3CCCC3)[C@H](C)OC2=O)c1O [compound 127]	–	–	–	–	> 70	> 70	> 70	> 70
COc1ccnc(C(=O)N[C@H]2COC[C@H](CCC(C)C)[C@@H](CCc3ccccc3)[C@H](C)OC2=O)c1OCOC(C)=O [compound 34]	> 70	> 70	> 70	> 70	–	–	–	–
COc1ccnc(C(=O)N[C@H]2COC[C@H](Cc3ccc(C(F)(F)F)cc3)[C@@H](Cc3ccccc3)[C@H](C)OC2=O)c1OC(C)=O [compound 55]	> 70	> 70	> 70	> 70	–	–	–	–
COc1ccnc(C(=O)N[C@H]2COC[C@H](Cc3ccccc3)[C@@H](Cc3ccc(F)cc3)[C@H](C)OC2=O)c1OCOC(C)=O [compound 61]	> 70	> 70	> 70	> 70	–	–	–	–
CCC[C@H]1COC[C@H](NC(=O)c2nccc(OC)c2O)C(=O)O[C@@H](C)[C@@H]1CC(C)C [compound 142]	–	–	–	–	< 70	< 70	< 70	< 70
COc1ccnc(C(=O)N[C@H]2COC[C@H](CCCc3ccccc3)[C@@H](Cc3ccccc3)[C@H](C)OC2=O)c1OCOC(=O)C(C)C [compound 43]	> 70	> 70	> 70	< 70	–	–	–	–
COc1ccnc(C(=O)N[C@H]2COC[C@H](Cc3ccccc3)[C@@H](CCC(C)C)[C@H](C)OC2=O)c1OCOC(=O)C(C)C [compound 82]	< 70	< 70	< 70	< 70	–	–	–	–
COc1ccnc(C(=O)N[C@H]2COC[C@H](CCCc3ccccc3)[C@@H](CC(C)C)[C@H](C)OC2=O)c1OC(C)=O [compound 62]	> 70	> 70	> 70	> 70	–	–	–	–
